Columns and labels:
[1] = system: Wistar rats; assay: Muscle mass (soleus weight) in TNF-α-induced muscular atrophy animal model; assay type: in vivo; details: 50 mg/kg body weight once a day for 8 weeks
Protocol: Wistar rats, aged five weeks, were acclimatized for one week and supplied with 100 ng/g of TNF-α for 2 weeks to induce muscular atrophy. The animals were randomly divided into a total of 5 groups, 8 animals per group, depending on their weight. Each of gangliosides GM3, GM1, GD1a, GT1b, and GQ1b (each 50 mg/kg body weight) as experimental groups was suspended in 0.25% carboxymethylcellulose. The suspension was administered at a given time once a day for 8 weeks. A group administered the same amounts of 0.25% carboxymethyl cellulose and TNF-α ingested by each experimental group was used as a control.
After administration of the sample for 8 weeks, the right soleus was dissected and its weight was measured with a microbalance (Mettler PE160, USA).

[2] = system: p-4EBP1; assay: Western blot of mRNA translation biomarkers in TNF-α-treated L6 myotubes: p-4EBP1; assay type: cell-based; details: 50 ng/mL TNF-α, 1 μM or 5 μM
Protocol: (§1) L6 myoblasts (ATCC) were seeded with DMEM (Hyclone) supplemented with 10% FBS (Hyclone) in a 6-well plate at a density of 1×10^5 cells/well, followed by culture. When the cultured cells reached a confluency of ˜80-85% per well, the media in the wells were replaced with DMEM (Hyclone) supplemented with 2% HS (Hyclone), followed by culture for additional 6 days to induce differentiation into myotubes. During culture for 6 days, the culture media were changed once every other day a total of 3 times. […] A group treated with 0.01% DMSO instead of the sample was used as a control. Cells were lysed with NP-40 buffer (ELPIS-Biotech, Daej eon, Korea) with a protease inhibitor cocktail (Sigma-Aldrich, St. Louis, MO, USA) and centrifuged at 13,000 rpm for 10 min. The cell lysate was obtained from the supernatant. The concentration of proteins in the supernatant was determined by the Bradford method (Bio-Rad Laboratories Inc.). Proteins at a certain concentration were heated for 5 min and separated by SDS-PAGE electrophoresis. The separated proteins were transferred to nitrocellulose membranes. Then, p-mTOR, mTOR, p-p70S6K, p70S6K, p-4EBP1, 4EBP1, and alpha-tubulin primary antibodies (Cell signaling technology, Beverly, MA, USA) were diluted at a ratio of 1:1000 with 2.5% bovine serum albumin (BSA; Bioworld, Dubin, OH, USA) and incubated with the proteins transferred to the nitrocellulose membranes at room temperature for 20 h. After incubation of the primary antibodies, the nitrocellulose membranes were washed 3 times with Tris-buffer saline Tween 20 (TBST) for 10 min. After washing, an anti-rabbit secondary antibody (Bethyl Laboratories, Inc., Montgomery, TA, USA) conjugated with horseradish peroxidase recognizing the primary antibodies was diluted 1:5000 with 2.5% BSA (Bioworld) and incubated with the nitrocellulose membranes at room temperature for 2 h. […]
(§2) Protein bands detected through antibody binding were developed using an ECL western blot detection reagent (Amersham, Tokyo, Japan) and visualized using a G;BOX EF imaging system (Syngene, Cambridge, UK). […]

[3] = system: mTOR; assay: mTOR Sandwich ELISA in L6 myotubes (activity for myogenic induction); assay type: cell-based; details: 1 μM or 5 μM, 12-h culture, *P<0.05
Protocol: The mTOR protein is known to induce the activation of proteins involved in muscle protein synthesis and an increase in muscle mass in the PI3K/Akt signaling pathway in muscle cells when phosphorylated and activated. Thus, the activity of mTOR was confirmed using an mTOR Sandwich ELISA kit (Cell Signaling Technology, Beverly, MA, USA) to determine the activity of ganglioside GM3 for myogenic induction.
L6 myoblasts (ATCC; Manassas, VA, USA) were seeded with Dulbecco's modified Eagle's media (DMEM; Hyclone) supplemented with 10% fetal bovine serum (FBS; Hyclone, Logan, UT, USA) in a 6-well plate at a density of 1×10^5 cells/well, followed by culture for 24 h. The media in the wells were replaced with DMEM (Hyclone) supplemented with 2% horse serum (HS; Hyclone), followed by culture for additional 6 days to differentiate the L6 cells into myotubes. Then, cells were treated with ganglioside GM3 (Cayman, Ann Arbor, MI, USA) at a concentration of 1 μM or 5 μM. After 12-h culture, cells were lysed by treatment with a cell lysis buffer. Proteins in the cell lysate were quantified by the Bradford method (Bio-Rad Laboratories Inc., Hercules, CA, USA) and the concentration of the cell lysate was then adjusted to 1 mg/mL. The cell lysate was plated in microwells bound with anti-mTOR antibody (50 μL/well) and cultured at 37° C. for 2 h. Cells were washed a total of 4 times with a washing buffer, treated with a detection antibody, and cultured at 37° C. for 1 h, rewashed a total of 4 times with a washing buffer, added with a horseradish peroxidase (HRP)-conjugated secondary antibody, and cultured at 37° C. for 30 min. Finally, after washing a total of 4 times with a washing buffer, TMB substrate was added to each well. After culture at 37° C. for 10 min, a stop solution was added to stop the TMB reaction. 2 min later, absorbance was measured at a wavelength of 450 nm to determine the level of mTOR in the myotubes treated with ganglioside GM3.
The procedure of Example 1 was repeated except that cells were treated with ganglioside GM1 (Cayman) at a concentration of 15 μM or 25 μM to examine the activity of the ganglioside for myogenic induction.
The procedure of Example 1 was repeated except that cells were treated with ganglioside GD1a (Cayman) at a concentration of 1 μM or 3 μM to examine the activity of the ganglioside for myogenic induction.
The procedure of Example 1 was repeated except that cells were treated with each of gangliosides GT1b and GQ1b (Cayman) at a concentration of 1 μM to examine the activity of the ganglioside for myogenic induction.

[4] = system: p-p70S6K; assay: Western blot of mRNA translation biomarkers in TNF-α-treated L6 myotubes: p-p70S6K; assay type: cell-based; details: 50 ng/mL TNF-α, 1 μM or 5 μM
Protocol: as §1, §2

[5] = system: p-mTOR; assay: Western blot of mRNA translation biomarkers in TNF-α-treated L6 myotubes: p-mTOR; assay type: cell-based; details: 50 ng/mL TNF-α, 1 μM or 5 μM
Protocol: as §1, §2

[6] = system: MuRF1; assay: RT-PCR of muscle degrading protein mRNA in TNF-α-treated L6 myotubes: MuRF1; assay type: cell-based; details: 50 ng/mL TNF-α, 1 μM or 5 μM
Protocol: (§3) L6 myoblasts (ATCC) were seeded with DMEM (Hyclone) supplemented with 10% FBS (Hyclone) in a 6-well plate at a density of 1×10^5 cells/well, followed by culture. When the cultured cells reached a confluency of ˜80-85% per well, the media in the wells were replaced with DMEM (Hyclone) supplemented with 2% HS (Hyclone), followed by culture for additional 6 days to induce differentiation into myotubes. During culture for 6 days, the culture media were changed once every other day a total of 3 times. The differentiation-induced cells were harvested and the cell media were replaced with DMEM supplemented with 50 ng/mL TNF-α (PeproTech) in which ganglioside GM3 (Cayman) was dissolved at a concentration of 1 μM or 5 μM. A group treated with 0.01% DMSO instead of the sample was used as a control. Total RNA was isolated from cells using TRIzol reagent (Takara, Kyoto, Japan). The isolated total RNA was quantified using NanoDrop 1000 (Thermo Fisher Scientific Inc., Waltham, MA, USA). 16 μL of the RNA was synthesized into cDNA using Reverse Transcriptase Premix (ELPIS-Biotech) and a PCR system (Gene Amp PCR System 2700; Applied Biosystems, Foster City, CA, USA) at 42° C. for 55 min and 70° C. for 15 min. 3 μL of the synthesized cDNA, the specific primers shown in Table 1 (Bioneer, Daej eon, Korea), and PCR premix (ELPIS-Biotech) were mixed and PCR was repeated 30 times at 95° C. for 30 sec, 60° C. for 1 min, and 72° C. for 1 min. After PCR amplification, cDNA was separated by electrophoresis on a 1.5% agarose gel and the cDNA bands were visualized using a G;BOX EF imaging system (Syngene).
(§4) The procedure of Example 8 was repeated except that cells were treated with ganglioside GM1 (Cayman) at a concentration of 15 μM or 25 μM to investigate the mRNA transcription and expression levels of atrogin-1 and MuRF1 as muscle degrading proteins.
(§5) The procedure of Example 8 was repeated except that cells were treated with ganglioside GD1a (Cayman) at a concentration of 1 μM or 3 μM to investigate the mRNA transcription and expression levels of atrogin-1 and MuRF1 as muscle protein degradation-related enzymes.
(§6) The procedure of Example 8 was repeated except that cells were treated with each of gangliosides GT1b and GQ1b (Cayman) at a concentration of 1 μM to investigate the mRNA transcription and expression levels of atrogin-1 and MuRF1 as muscle protein degradation-related enzymes.

[7] = system: atrogin-1; assay: RT-PCR of muscle degrading protein mRNA in TNF-α-treated L6 myotubes: atrogin-1; assay type: cell-based; details: 50 ng/mL TNF-α, 1 μM or 5 μM
Protocol: as §3, §4, §5, §6

CCCCCCCCCCCCC/C=C/[C@@H](O)[C@H](CO[C@@H]1OC(CO)[C@@H](O[C@@H]2OC(CO)[C@@H](O)C(O[C@]3(C(=O)O)CC(O)[C@@H](NC(C)=O)C([C@@H](O)[C@H](O)CO)O3)C2O)C(O)C1O)NC(=O)CCCCCCCCCCCCCCCCC (some centres unmarked) [Ganglioside GM3, ganglioside GM3]
increase of muscle (soleus) weight compared to the control group [1]: 23.56% | Average soleus weight ([1]; right soleus, control 416.0 ± 19.57): 514.0 ± 18.4 mg | expression level of phosphorylated p-4EBP1 in L6 muscle cells [2]: increased | activity of mTOR in L6 muscle cells [3]: significantly increased | expression level of phosphorylated p-P70S6K in L6 muscle cells [4]: increased | expression level of phosphorylated p-mTOR in L6 muscle cells [5]: increased | mRNA expression level of MuRF1 in L6 muscle cells [6]: reduced | mRNA expression level of atrogin-1 in L6 muscle cells [7]: reduced
